Laboratory results: US12030876B2, “Aryl hydrocarbon receptor (AHR) agonists and uses thereof” (Ikena Oncology, Inc., priority 2019, dated 2024)
Where two headings read alike, the source gives them in different places. Each block holds one molecule with its values, some of them ahead of it.

Experiments:
AHR [1] = biological target: T1, AHR (Mus musculus, UniProt P30561); assay: DRE-Luciferase Reporter Assay, Hepa1.6 (agonist); assay type: cell-based, murine; details: Hepa1.6, Table 3; read-out: DRE-Luc Hepa1.6 - Agonist: Average EC50
T1 sequence (P30561 1-848 F348L/P471L): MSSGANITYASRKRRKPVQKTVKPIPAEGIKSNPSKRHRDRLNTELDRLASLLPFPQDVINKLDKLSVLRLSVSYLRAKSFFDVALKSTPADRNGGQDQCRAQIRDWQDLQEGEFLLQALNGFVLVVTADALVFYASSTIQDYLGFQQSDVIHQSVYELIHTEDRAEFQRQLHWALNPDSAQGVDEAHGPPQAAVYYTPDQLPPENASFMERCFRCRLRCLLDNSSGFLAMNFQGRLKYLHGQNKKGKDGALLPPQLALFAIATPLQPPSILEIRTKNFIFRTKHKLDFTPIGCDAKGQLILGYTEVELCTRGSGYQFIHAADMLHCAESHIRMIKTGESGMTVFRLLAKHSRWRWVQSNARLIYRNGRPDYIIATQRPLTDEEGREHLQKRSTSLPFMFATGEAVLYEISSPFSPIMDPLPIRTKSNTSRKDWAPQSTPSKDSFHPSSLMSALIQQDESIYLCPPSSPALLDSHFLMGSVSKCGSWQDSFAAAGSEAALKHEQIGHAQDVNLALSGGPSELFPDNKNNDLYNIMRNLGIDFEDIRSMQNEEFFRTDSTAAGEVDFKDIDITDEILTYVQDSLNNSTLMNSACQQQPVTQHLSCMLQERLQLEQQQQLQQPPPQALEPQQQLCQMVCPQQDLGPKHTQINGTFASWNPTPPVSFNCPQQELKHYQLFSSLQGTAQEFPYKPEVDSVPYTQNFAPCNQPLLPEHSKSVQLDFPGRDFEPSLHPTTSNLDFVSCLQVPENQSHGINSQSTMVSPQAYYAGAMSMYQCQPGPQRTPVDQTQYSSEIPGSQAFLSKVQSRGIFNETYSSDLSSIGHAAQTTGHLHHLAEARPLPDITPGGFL
Experimental: DRE-Luciferase Reporter Assay
AHR binds to Dioxin Responsive Elements (DRE) upstream of genes that it activates. One measure of AHR activity is activation of a reporter gene, such as luciferase, downstream of one or multiple DRE elements. Luciferase activity reflects activation and inhibition of AHR in the cells expressing this reporter.
Murine Hepa1-6 or Hepa-1c1c7 or other murine cell line with a DRE-luciferase reporter either stably or transiently transfected are plated in media in plates (96-well, 384-well or other plates) and incubated overnight at 37 C in a CO2 incubator. Likewise, human HepG2 or other human cell line with a DRE-luciferase reporter either stably or transiently transfected are plated in media in plates (96-well, 384-well or other plates) and incubated overnight at 37 C in a CO2 incubator.
(§1) The next day, an AHR agonist compound is added. Cells are incubated for 6, 16 or 24 hours or another time point and then lysed for determination of luciferase activity as a read-out of the AHR activation. Luciferase can be measured with a commercial kit such as the Promega Luciferase kit or any kit or reagents that provide the luciferin substrate for measuring luciferase activity. The level of luciferase with only activating ligand (e.g. such as TCDD, kynurenine, ITE (2-(1H-indole-3-ylcarbonyl)-4-thiazolecarboxylic methyl ester), VAF347, BNF (beta-naphthoflavone), ICZ (6-formylindolo(3,2-b) carbazole or other AHR ligands) added is the maximum signal while the luciferase with no ligand is the minimum signal. EC50s can be determined as the concentration which activates half of the maximum luciferase activity.

Cyp1a1 gene expression = test system: Cyp1a1 gene expression; design: species or system C57BL/6N mice; details: mouse, in vivo
Experimental: C57BL/6N mice are weighed and randomized into treatment groups with group size of 3-5 mice. On study Day 1, treatment is initiated and necropsies follow on day 1 at 4 and 12 hours post-dose and on Day 2, 24 hours post-dose. On Day 1, mice are dosed orally with one dose of the AHR agonist compound(s) that are in a suspension and mixed well before dosing. At the designated time, animals are euthanized and plasma and tissue taken for compound levels (PK) and compound effect (PD) on gene expression. Liver samples and proximal colon are weighed and then frozen for subsequent RNA extraction and RT-PCR analysis. AHR activation is determined by measuring Cyp1a1 gene expression relative to a housekeeping gene, such as GAPDH or HPRT. Cyp1a1 expression levels in the liver are compared to Cyp1a1 levels in the colon to determine a colon:liver ratio to determine the level of GI preferred AHR activation.

AHR [2] = biological target: T2, AHR (Homo sapiens, UniProt P35869); assay: DRE-Luciferase Reporter Assay, HepG2 (agonist); assay type: cell-based; details: read-out: DRE-Luc HepG2 - Agonist: Average EC50
T2 construct: endogenous in cells; host or cells: HepG2 (human), transfected with a DRE-luciferase reporter only
T2 sequence (P35869 11-848): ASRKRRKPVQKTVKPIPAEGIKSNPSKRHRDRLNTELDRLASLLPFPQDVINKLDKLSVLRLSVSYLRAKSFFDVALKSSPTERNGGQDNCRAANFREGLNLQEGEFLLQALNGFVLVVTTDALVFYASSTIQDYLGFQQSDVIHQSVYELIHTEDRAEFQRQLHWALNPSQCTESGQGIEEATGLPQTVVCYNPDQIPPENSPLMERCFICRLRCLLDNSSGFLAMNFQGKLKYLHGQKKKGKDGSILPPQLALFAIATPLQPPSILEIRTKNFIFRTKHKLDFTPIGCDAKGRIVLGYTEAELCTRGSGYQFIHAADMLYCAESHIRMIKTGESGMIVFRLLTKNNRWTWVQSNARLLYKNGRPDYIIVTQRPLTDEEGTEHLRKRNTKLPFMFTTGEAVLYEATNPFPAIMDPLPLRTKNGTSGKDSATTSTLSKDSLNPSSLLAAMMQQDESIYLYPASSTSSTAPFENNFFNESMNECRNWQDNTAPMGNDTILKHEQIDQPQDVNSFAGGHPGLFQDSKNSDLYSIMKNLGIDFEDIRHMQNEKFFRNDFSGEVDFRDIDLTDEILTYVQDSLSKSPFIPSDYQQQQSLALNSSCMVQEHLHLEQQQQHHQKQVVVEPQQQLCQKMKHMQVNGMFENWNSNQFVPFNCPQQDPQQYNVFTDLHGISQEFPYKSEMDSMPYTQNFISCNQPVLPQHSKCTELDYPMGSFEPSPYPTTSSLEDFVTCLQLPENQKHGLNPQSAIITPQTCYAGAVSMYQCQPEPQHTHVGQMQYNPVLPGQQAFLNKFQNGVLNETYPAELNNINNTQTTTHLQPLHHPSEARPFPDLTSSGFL
Procedure, shortened: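 Cells carrying a stably or transiently transfected DRE-luciferase reporter, plated overnight at 37 C, then given agonist for 6, 16 or 24 h before lysis and luciferase read-out. Signal scaled between no ligand (minimum) and activating ligand alone, e.g. TCDD (maximum); EC50 = concentration giving half-maximal luciferase activity.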

[3] = test system: DSS model of Inflammatory Bowel Disease (IBD); assay type: in vivo, C57Bl/6 mice
Experimental: On study day −1, C57Bl/6 mice are weighed and randomized into treatment groups based on body weight. On study day 0, treatment groups are given 2.5% DSS in drinking water and treatment is initiated on the same day, with either vehicle or AHR agonist compound(s). On study day 7, DSS drinking water is replaced with normal drinking water for the remainder of the study. Body weight is measured daily during the entire study. On study day 10, animals are anesthetized with Isoflurane and bled to exsanguination followed by cervical dislocation. The entire colon is removed and measured for length, weight, and weight per length. Overall efficacy of test AR agonist compounds is based on body weight, colon length, and colon histopathology. Histopathology data is assessed for appropriate parameters, as determined by a pathologist and the parameters for these DSS studies can include inflammation, erosion, gland loss, edema, hyperplasia, neutrophil count, mucosal thickening, lymphoid aggregate count and lymphoid aggregate size. The different parameter scores can be added for a summed score for the study histopathology.

AHR [4] = biological target: T1, AHR; assay: P450 CYP1A1 Luciferase Assay, Hepa1.6 (agonist); assay type: cell-based, murine; details: Hepa1.6, Table 2
Experimental: P450 CYP1A1 Luciferase Assay
AHR binds to Dioxin Responsive Elements (DRE) upstream of genes that it activates. One measure of AHR activity is P450 CYP1A1 protein levels determined by measuring CYP1A1 enzyme activity using a luminogenic CYP1A1 luciferin-based substrate. Luciferase activity will reflect CYP1A1 activity resulting from activation of AHR in the cells.
Murine Hepa1-6 or Hepa-1c1c7 or other murine cell line, human HepG2 or other human cell line are plated in media (96-well, 384-well or other plates) and incubated overnight at 37 C in a CO2 incubator.
as §1, with “lysed and incubated with a CYP1A1 luciferase-based substrate (e.g. Luciferin-CEE)” for “lysed”, “3, 6, or 12 hours of another time point. Determination” for “determination”, “CYP1A1 enzyme activity” for “the AHR activation. Luciferase”, “P450 Glo CYP1A1 detection reagent” for “Luciferase kit”, “provide” for “provide the luciferin substrate”

EC50 (AHR [1]): > 1000 nM
Cyp1a1 induction in the colon (Cyp1a1 gene expression): comparable
Cyp1a1 induction in the liver (Cyp1a1 gene expression): significantly less induction
colon:liver ratio of Cyp1a1 expression (Cyp1a1 gene expression): colon-preferred activity
EC50 (AHR [2]; HepG2, Table 3): 100 to 1000 nM
Structure (SMILES): O=C(O)c1cccc(/N=N/c2cccc(-c3csc(Nc4cccc(C(F)(F)F)c4)n3)c2)c1 [I-161]
Cyp1a1 induction in the colon (Cyp1a1 gene expression; C57BL/6N, po): Cyp1a1 induction in the colon at low doses
inflammation and erosion (histopathology) ([3]; DSS model, relative to vehicle control, FIG. 6, FIG. 19): reduced inflammation and erosion
activity at all doses compared with CSA ([3]; DSS model, FIG. 18B): comparable or better than CSA
histopathology data compared with CSA ([3]; DSS model, FIG. 18B): activity comparable to CSA
inflammation, edema, hyperplasia, and lymphoid aggregate size ([3]; DSS model, FIG. 19): reduction
efficacy in DSS IBD mouse model ([3]; FIGS. 18A-18B): demonstrates efficacy

EC50 (AHR [2]; HepG2, Table 2): 100 to 1000 nM
EC50 (AHR [4]): > 1000 nM
Structure (SMILES): FC(F)(F)c1cccc(Nc2nc(-c3cccc(/N=N/c4cccc(-c5csc(Nc6cccc(C(F)(F)F)c6)n5)c4)c3)cs2)c1 [I-41]
histology evaluation of inflammation ([3]; DSS model, compared with ITE administration, FIG. 8): comparable activity

EC50 (AHR [1]): 100 to 1000 nM
EC50 (AHR [2]; HepG2, Table 3): 100 to 1000 nM
Structure (SMILES): O=C(O)c1cccc(/N=N/c2cc(-c3csc(Nc4cccc(C(F)(F)F)c4)n3)c(F)cc2F)c1 [I-174]

EC50 (AHR [1]): > 1000 nM
EC50 (AHR [2]; HepG2, Table 3): < 10 nM
Structure (SMILES): C[N+](C)(C)CCNC(=O)N(c1cccc(C(F)(F)F)c1)c1nc(-c2cc[nH]c(=O)c2)cs1 [I-146]
